Consider 21 molecules from patent US9079888B2, “Compounds as histamine H3 receptor ligands” (Suven Life Sciences Limited, priority 2011, dated 2015).

Molecules are shown by their SMILES. Counter-ions that a name gives are not always drawn.

Data set [1] deals with Human or Rat Histamine H3 Receptor. The data set is described as follows: Binding assay for human or rat Histamine H3 receptor ([3H] R-α-methylhistamine displacement). To be noted: radioligand [3H] R-α-methylhistamine 3.0 nM; receptor source rat brain frontal cortex or recombinant human cDNA in CHO cells (table does not say which). The method, then: The reaction was terminated by rapid vacuum filtration onto the glass fiber filters. Radioactivity trapped onto the filters was determined and compared to the control values in order to ascertain any interactions of the test compound(s) with either cloned human or rat receptor binding site.

Data set [2] can be described thus: Rodent Pharmacokinetic Study.
Method: Male Wistar rats (230-280 grams) obtained from NIN (National Institute of Nutrition, Hyderabad, India) were used as an experimental animal. Three animals were housed in each cage. Animals were kept fasted over night and maintained on a 12 hours light/dark cycle. Three rats were dosed New chemical entity (NCE) orally (3 or 10 mg/kg) and intravenously (1 or 5 mg/kg) on day 0 and day 2.
At each time point blood was collected by jugular vein. Blood was stored at 2-8° C. until analysis. The concentrations of the NCE compound in blood were determined using LC-MS/MS method. Schedule time points: Pre dose 0.08, 0.25, 0.5, 1, 2, 4, 6, 8 and 24 hours after dosing (n=3). The NCE compounds were quantified in blood by partially validated LC-MS/MS method using acetonitrile precipitation technique. […] Study samples were analyzed using calibration samples in the batch and quality control samples spread across the batch.
Pharmacokinetic parameters were calculated by non-compartmental model using software WinNonlin version 5.0.1.
Another data set concerns rats. The data set is described as follows: Inhibition of Food Intake. In kind it is in vivo. To be noted: rats fasted 18 hours, oral treatment 60 minutes before feed, active dose. As for the experimental part:
The anti-obesity properties of compounds of this invention were estimated using this model.
The experiment consisted of 6 days. The rats were adapted to the 18 hours fasting and 6 hours feeding pattern. The animals were housed in a group of three in the cages provided with the fasting grills and was fasted for 18 hours. After 18 hours fasting the rats were separated and placed individually in the cage. Weighed amount of feed was provided to rats for 6 hours and the feed intake at 1 hour, 2 hours, 4 hours and 6 hours was measured.
Again the rats were regrouped and fasted for 18 hours. The above procedure was followed for 5 days. The average cumulative food intake by the rats on the last 3 days was calculated. Animals were randomized on the basis of their previous three days food intake. On the day of experiment the rats were orally treated test compounds or vehicle. After 60 minutes, the feed was provided to the rats and the food intake at 1 hour, 2 hours, 4 hours and 6 hours was measured. The food intake by the rats treated with test compound was compared with the vehicle treated group by using Unpaired Student's t test.

The next data set deals with Male Wister rats. In words: Object Recognition Task Model. In kind it is in vivo. To be noted: rat, 1 mg/kg p.o. The method, then: The cognition enhancing properties of compounds of this invention were estimated by using this model.
Male Wister rats (230-280 grams) obtained from N. I. N. (National Institute of Nutrition, Hyderabad, India) was used as experimental animals. Four animals were housed in each cage. Animals were kept on 20% food deprivation before one day and given water ad libitum throughout the experiment and maintained on a 12 hours light/dark cycle. Also the rats were habituated to individual arenas for 1 hour in the absence of any objects.
One group of 12 rats received vehicle (1 mL/Kg) orally and another set of animals received compound of the formula (I) either orally or i.p., before one hour of the familiar (T1) and choice trial (T2).
The experiment was carried out in a 50×50×50 cm open field made up of acrylic. In the familiarization phase, (T1), the rats were placed individually in the open field for 3 minutes, in which two identical objects (plastic bottles, 12.5 cm height×5.5 cm diameter) covered in yellow masking tape alone (a1 and a2) were positioned in two adjacent corners, 10 cms from the walls. After 24 hours of the (T1) trial for long-term memory test, the same rats were placed in the same arena as they were placed in T1 trial. Choice phase (T2) rats were allowed to explore the open field for 3 minutes in presence of one familiar object (a3) and one novel object (b) (Amber color glass bottle, 12 cm high and 5 cm in diameter). Familiar objects presented similar textures, colors and sizes. During the T1 and T2 trial, explorations of each object (defined as sniffing, licking, chewing or having moving vibrissae whilst directing the nose towards the object at a distance of less than 1 cm) were recorded separately by stopwatch. Sitting on an object was not regarded as exploratory activity, however, it was rarely observed.
T1 is the total time spent exploring the familiar objects (a1+a2).
T2 is the total time spent exploring the familiar object and novel object (a3+b).
The object recognition test was performed as described by Ennaceur, A., Delacour, J., 1988, A new one-trial test for neurobiological studies of memory in rats—Behavioural data, Behay. Brain Res., 31, 47-59.

Setting [3] is: male, Wistar, rat, whole blood, po, 10 mg/kg.
Setting [4] is: male, Wistar, rat, whole blood, iv, 1 mg/kg.
Where [5] appears, read: male, Wistar, rat, whole blood, po, 3 mg/kg.
The mark [6] stands for this setting: Wistar/Male rat, Intravenous, 1 mg/kg, vehicle water, blood.
Where [7] appears, read: Wistar/Male rat, Per Oral, 3 mg/kg, vehicle water, blood.
Where [8] appears, read: Wistar/Male rat, per oral 3 mg/kg vs intravenous 1 mg/kg.

On to `O=C(CNc1ccc(OC2CCN(C3CCC3)CC2)cc1)N1CCOCC1` [Example 2, 2-[4-(1-Cyclobutylpiperidin-4-yloxy)phenylamino]-1-(morpholin-4-yl)ethanone hydrochloride], for which, in data set [1], the Ki (as a rule, a measure of affinity in units of concentration, obtained from inhibition or displacement) is 6.4 nM.
Turning to `O=C(CN1CCCCC1)Nc1ccc(OC2CCN(C3CCC3)CC2)cc1C(F)(F)F` [Example 7, N-[4-(1-Cyclobutylpiperidin-4-yloxy)-2-trifluoromethylphenyl]-2-(piperidin-1-yl) acetamide], in data set [1], the inhibitory constant (Ki) stood at 14.8 nM.
Take `Cc1cc(OC2CCN(C(C)C)CC2)ccc1NC(=O)CN1CCCC1` [Example 10, N-[4-(1-Isopropyl-piperidin-4-yloxy)-2-methylphenyl]-2-(pyrrolidin-1-yl) acetamide]: the Ki in data set [1] turned out to be 8.4 nM.
Regarding `Cc1cc(OC2CCN(C3CCC3)CC2)ccc1NC(=O)CN1CCCC1` [Example 11, N-[4-(1-Cyclobutylpiperidin-4-yloxy)-2-methylphenyl]-2-(pyrrolidin-1-yl) acetamide], the Ki in data set [1] was determined as 1.9 nM. Moreover, in data set [2] (male, Wistar, rat, whole blood, iv, 5 mg/kg), the AUC(0-t) (usually the area under the concentration-time curve up to a stated or last time point) came to 3340 ± 656 ng·h/mL. In addition, in data set [2] (setting [3]), the area under the curve AUC(0-t) was determined as 1350 ± 569 ng·h/mL; the Cmax (as a rule, the peak of the concentration-time curve) came out at 122 ± 55 ng/mL; the Tmax (as a rule, the time from dosing to the highest level) stood at 4 ± 1.76 h; the bioavailability (in general, the share of a dose that reaches the circulation, judged against a reference dose that is usually intravenous) was determined as 20 ± 9%.
Take `Cc1cc(OC2CCN(C3CCCC3)CC2)ccc1NC(=O)CN1CCCCC1` [Example 12, N-[4-(1-Cyclopentylpiperidin-4-yloxy)-2-methylphenyl]-2-(piperidin-1-yl) acetamide]: the Ki in data set [1] is 7.5 nM.
Consider `Cc1cc(OC2CCN(C3CCC3)CC2)ccc1NC(=O)CN1CCCCC1` [Example 13, N-[4-(1-Cyclobutylpiperidin-4-yloxy)-2-methylphenyl]-2-(piperidin-1-yl) acetamide], for which the “Inhibition of food intake” value with rats is reported as 30 mg/kg, p.o. Also, in data set [1], the Ki was found to be 3.3 nM.
On to `CN(C(=O)CN1CCOCC1)c1ccc(OC2CCN(C3CCC3)CC2)cc1` [Example 14, N-[4-(1-Cyclobutylpiperidin-4-yloxy)phenyl]-N-methyl-2-(morpholin-4-yl) acetamide], for which the Ki in data set [1] worked out at 4.9 nM.
Same read-out and setting: to `Cc1cc(OC2CCN(C3CCCC3)CC2)ccc1NC(=O)CN1CCC[C@H]1C` [Example 15, N-[4-(1-Cyclopentylpiperidin-4-yloxy)-2-methylphenyl]-2-(R-2-methylpyrrolidin-1-yl) acetamide] belongs 4 nM.
Take `Cc1cc(OC2CCN(C3CCC3)CC2)ccc1NC(=O)CN1CCC[C@H]1C` [Example 16, N-[4-(1-Cyclobutylpiperidin-4-yloxy)-2-methylphenyl]-2-(R-2-methylpyrrolidin-1-yl) acetamide]: the “Inhibition of food intake” value in the data set with rats is reported as “≧30 mg/kg, p.o”. In data set [1], the Ki was found to be 2.4 nM.
Consider `O=C(CN1CCC(O)CC1)Nc1ccc(OC2CCN(C3CCC3)CC2)cc1` [Example 19, N-[4-(1-Cyclobutylpiperidin-4-yloxy)phenyl]-2-(4-hydroxypiperidin-1-yl) acetamide], for which, in data set [1], the Ki was 6.4 nM. Also, in data set [2] (setting [4]), the exposure AUC(0-t) was found to be 347 ± 44 ng·h/mL and the half-life (as a rule, how long it takes for the measured level to halve) was 17 ± 4.5 h. Further, in data set [2] (setting [5]), the AUC(0-t) was determined as 838 ± 96 ng·h/mL, the concentration peaked (Cmax) at 67 ± 11 ng/mL, the time of peak concentration (Tmax) was determined as 2.67 ± 1.15 h and the bioavailability worked out at 81 ± 12%. This molecule had a half-life in data set [2] (setting [5]) of 12.8 ± 2.48 h.
In the case of `O=C(CN1CCCC1)Nc1ccc(OC2CCN(C3CCC3)CC2)cc1` [Example 21, N-[4-(1-Cyclobutylpiperidin-4-yloxy)-phenyl]-2-(pyrrolidin-1-yl) acetamide], the “Inhibition of food intake” value in the data set with rats is “≧30 mg/kg, p.o”. The Ki in data set [1] worked out at 1.1 nM.
Consider `CC(C)N1CCC(Oc2ccc(NC(=O)CN3CCOCC3)cc2)CC1` [Example 22, N-[4-(1-Isopropylpiperidin-4-yloxy)-phenyl]-2-(morpholin-4-yl) acetamide], for which, in the data set on Male Wister rats, the Inference entry was “Active”. In the data set on Male Wister rats (choice trial T2 24 h after T1), the “Exploration time mean ± S.E.M, Familiar object” value worked out at 7.12 ± 1.51 s and the “Exploration time mean ± S.E.M, Novel object” value came to 16.50 ± 2.37 s. In addition, in the data set with rats, the “Inhibition of food intake” value was 60 mg/kg, p.o. Also, in data set [1], the Ki worked out at 8.3 nM. The molecule also displayed an AUCt in data set [2] (setting [6]) of 340 ± 60 ng·h/mL. In data set [2] (setting [7]), the AUCt is 850 ± 61 ng·h/mL and the time to peak (Tmax) was 0.42 ± 0.14 h. For the same molecule, in data set [2] (setting [8]), the bioavailability came to 85 ± 12%. In data set [2] (setting [5]), this molecule yielded a Cmax of 376 ± 27 ng/mL.
As for `O=C(CN1CCOCC1)Nc1ccc(OC2CCN(C3CC3)CC2)cc1` [Example 23, N-[4-(1-Cyclopropylpiperidin-4-yloxy)phenyl]-2-(morpholin-4-yl) acetamide], in data set [2] (setting [6]), the AUCt is 338 ± 29 ng·h/mL and the T1/2 is recorded as 1.13 ± 0.02 h. In data set [2] (setting [7]), the AUCt amounted to 556 ± 111 ng·h/mL, the Cmax came to 389 ± 29 ng/mL, the T1/2 was found to be 1.23 ± 0.53 h and the Tmax is 0.50 ± 0.00 h. The same molecule registered a bioavailability in data set [2] (setting [8]) of 55 ± 10%.
As to `CC(C)N1CCCN(CC(=O)Nc2ccc(OC3CCN(C4CCC4)CC3)cc2)CC1` [Example 24, N-[4-(1-Cyclobutylpiperidin-4-yloxy)phenyl]-2-(4-isopropyl[1,4]diazepan-1-yl) acetamide], the Ki in data set [1] came out at 1 nM.
The same measure, in the same setting: in the case of `O=C(CN1CCOC(CO)C1)Nc1ccc(OC2CCN(C3CCC3)CC2)cc1` (stereo not drawn) [Example 25, N-[4-(1-Cyclobutylpiperidin-4-yloxy)phenyl]-2-(2-hydroxymethylmorpholin-4-yl) acetamide] it was 4.05 nM.
Still for that read-out and setting: in the case of `O=C(CCN1CCOCC1)Nc1ccc(OC2CCN(C3CCC3)CC2)cc1` [Example 26, N-[4-(1-Cyclobutylpiperidin-4-yloxy)phenyl]-3-(morpholin-4-yl) propionamide] it was 6.7 nM; in that of `O=C(CN1CCCCC1)Nc1ccc(OC2CCN(C3CCCC3)CC2)cc1` [Example 27, N-[4-(1-Cyclopentylpiperidin-4-yloxy)phenyl]-2-(piperidin-1-yl) acetamide dihydrochloride], 4.1 nM; in that of `O=C(CN1CCCC1)Nc1ccc(OC2CCN(C3CCCC3)CC2)cc1` [Example 28, N-[4-(1-Cyclopentylpiperidin-4-yloxy)phenyl]-2-(pyrrolidin-1-yl) acetamide dihydrochloride], 3.8 nM.
Consider `O=C(CN1CCCCC1)Nc1ccc(OC2CCN(C3CCC3)CC2)cc1` [Example 29, N-[4-(1-Cyclobutylpiperidin-4-yloxy)phenyl]-2-(piperidin-1-yl) acetamide], for which the Ki in data set [1] amounted to 1.6 nM.
Same read-out and setting: to `CC(=O)N(CCN1CCOCC1)c1ccc(OC2CCN(C3CC3)CC2)cc1` [Example 38, N-[4-(1-Cyclopropylpiperidin-4-yloxy)phenyl]-N-[2-(morpholin-4-yl)ethyl] acetamide L(+) tartarate] belongs 6.6 nM; to `CC(=O)N1CCN(CC(=O)Nc2ccc(OC3CCN(C4CCC4)CC3)cc2)CC1` [Example 39, N-[4-(1-Cyclobutylpiperidin-4-yloxy)phenyl]-2-(1-acetylpiperazin-4-yl) acetamide], 5.39 nM.
